# Data from US11541050B2, “Pyrimidine derivatives for the treatment of viral infections” (JANSSEN SCIENCES IRELAND UC, priority 2011, dated 2023).
# Molecular target: T1, human TLR7 (wild type sequence) (Homo sapiens, UniProt Q9NYK1)
# T1 construct: expressed in transfected cells; host or cells: HEK293
# T1 sequence (Q9NYK1 27-1049): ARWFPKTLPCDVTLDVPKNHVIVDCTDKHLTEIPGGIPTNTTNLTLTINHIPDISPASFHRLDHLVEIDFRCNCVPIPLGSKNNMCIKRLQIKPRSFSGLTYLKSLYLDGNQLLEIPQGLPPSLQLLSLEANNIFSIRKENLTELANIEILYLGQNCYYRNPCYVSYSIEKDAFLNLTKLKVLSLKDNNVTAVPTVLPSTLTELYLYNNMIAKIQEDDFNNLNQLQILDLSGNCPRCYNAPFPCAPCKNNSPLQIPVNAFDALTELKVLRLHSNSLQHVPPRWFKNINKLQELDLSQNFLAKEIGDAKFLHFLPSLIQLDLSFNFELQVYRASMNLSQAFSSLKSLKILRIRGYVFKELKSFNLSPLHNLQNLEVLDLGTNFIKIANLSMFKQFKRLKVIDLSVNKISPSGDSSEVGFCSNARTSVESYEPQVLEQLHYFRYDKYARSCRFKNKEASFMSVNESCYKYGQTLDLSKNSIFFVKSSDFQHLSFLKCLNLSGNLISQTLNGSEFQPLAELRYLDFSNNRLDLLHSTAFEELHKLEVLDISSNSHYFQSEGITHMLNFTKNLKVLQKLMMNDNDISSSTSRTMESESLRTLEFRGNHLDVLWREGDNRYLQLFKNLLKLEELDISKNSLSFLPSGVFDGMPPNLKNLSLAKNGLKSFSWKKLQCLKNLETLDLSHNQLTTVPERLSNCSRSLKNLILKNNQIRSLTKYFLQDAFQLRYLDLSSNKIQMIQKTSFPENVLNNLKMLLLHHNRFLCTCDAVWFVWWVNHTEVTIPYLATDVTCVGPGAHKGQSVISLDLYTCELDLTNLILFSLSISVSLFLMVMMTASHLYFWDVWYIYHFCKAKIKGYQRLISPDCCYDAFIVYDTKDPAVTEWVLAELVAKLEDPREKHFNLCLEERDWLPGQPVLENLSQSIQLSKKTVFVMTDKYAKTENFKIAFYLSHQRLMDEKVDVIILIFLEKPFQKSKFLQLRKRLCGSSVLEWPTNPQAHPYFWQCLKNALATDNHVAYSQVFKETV
# Experiment: TLR7 cellular NFκB-luc reporter assay, wild type TLR7
# Type: cell-based
# Set-up: unit not given here
# Details: lowest effective concentration, wild type TLR7 (compounds 74 onward)
# Protocol: (§1) The ability of compounds to activate human TLR7 and/or TLR8 was assessed in a cellular reporter assay using HEK293 cells transiently transfected with a TLR7 or TLR8 expression vector and NFκB-luc reporter construct. In one instance the TLR expression construct expresses the respective wild type sequence or a mutant sequence comprising a deletion in the second leucine-rich repeat of the TLR.
# (§2) Briefly, HEK293 cells were grown in culture medium (DMEM supplemented with 10% FCS and 2 mM Glutamine). For transfection of cells in 10 cm dishes, cells were detached with Trypsin-EDTA, transfected with a mix of CMV-TLR7 or TLR8 plasmid (750 ng), NFκB-luc plasmid (375 ng) and a transfection reagent and incubated for 48 hours at 37° C. in a humidified 5% CO2 atmosphere. Transfected cells were then detached with Trypsin-EDTA, washed in PBS and resuspended in medium to a density of 1.67×10^5 cells/mL. Thirty microliters of cells were then dispensed into each well in 384-well plates, where 10 μL of compound in 4% DMSO was already present. Following 6 hours incubation at 37° C., 5% CO2, the luciferase activity was determined by adding 15 μl of Steady Lite Plus substrate (Perkin Elmer) to each well and readout performed on a ViewLux ultraHTS microplate imager (Perkin Elmer). Dose response curves were generated from measurements performed in quadruplicates. Lowest effective concentrations (LEC) values, defined as the concentration that induces an effect which is at least two fold above the standard deviation of the assay, were determined for each compound.
row,SMILES,TLR 7 wt LEC
1,CCCC[C@@H](CCO)Nc1nc(N)ncc1OCc1ncc(C)c(OC)c1C [Compound 75],0.023
2,CCCC[C@H](Nc1nc(N)ncc1OCCCc1ccccc1)C(=O)OC [Compound 82],4.420
3,CCCCNc1nc(N)ncc1OCCOCc1ccccc1 [Compound 83],0.997
4,CCCCNc1nc(N)ncc1OCCOc1ccncc1 [Compound 84],0.860
5,CCCCNc1nc(N)ncc1OCc1nn(C)c(C)c1N [Compound 85],0.509
6,CCC[C@@H](CCO)Nc1nc(N)ncc1OCc1nccc(OC)c1OC [Compound 87],0.013
7,CCC(CO)Nc1nc(N)ncc1OC (stereo not drawn) [Compound 92],>25
8,CCCCNc1nc(N)ncc1OCC(=O)c1ccc(OC)cc1 [Compound 94],1.590
9,CCCCNc1nc(N)ncc1OCc1ccc(F)cc1 [Compound 95],2.730
10,CCCCCNc1nc(N)ncc1OC(C)c1ccccc1 (stereo not drawn) [Compound 96],>25
11,COc1cnc(N)nc1NCCCCF [Compound 97],21.810
12,CCCCNc1nc(N)ncc1O[C@H](C)c1ccccc1 [Compound 98],>25
13,CCCCNc1nc(N)ncc1O[C@@H](C)c1ccccc1 [Compound 99],8.980
14,CCCCNc1nc(N)ncc1OCC1CCCO1 (stereo not drawn) [Compound 100],18.950

# Molecular target: T2, human TLR8 (wild type sequence) (Homo sapiens, UniProt Q9NR97)
# T2 construct: expressed in transfected cells; host or cells: HEK293
# T2 sequence (Q9NR97 27-1041): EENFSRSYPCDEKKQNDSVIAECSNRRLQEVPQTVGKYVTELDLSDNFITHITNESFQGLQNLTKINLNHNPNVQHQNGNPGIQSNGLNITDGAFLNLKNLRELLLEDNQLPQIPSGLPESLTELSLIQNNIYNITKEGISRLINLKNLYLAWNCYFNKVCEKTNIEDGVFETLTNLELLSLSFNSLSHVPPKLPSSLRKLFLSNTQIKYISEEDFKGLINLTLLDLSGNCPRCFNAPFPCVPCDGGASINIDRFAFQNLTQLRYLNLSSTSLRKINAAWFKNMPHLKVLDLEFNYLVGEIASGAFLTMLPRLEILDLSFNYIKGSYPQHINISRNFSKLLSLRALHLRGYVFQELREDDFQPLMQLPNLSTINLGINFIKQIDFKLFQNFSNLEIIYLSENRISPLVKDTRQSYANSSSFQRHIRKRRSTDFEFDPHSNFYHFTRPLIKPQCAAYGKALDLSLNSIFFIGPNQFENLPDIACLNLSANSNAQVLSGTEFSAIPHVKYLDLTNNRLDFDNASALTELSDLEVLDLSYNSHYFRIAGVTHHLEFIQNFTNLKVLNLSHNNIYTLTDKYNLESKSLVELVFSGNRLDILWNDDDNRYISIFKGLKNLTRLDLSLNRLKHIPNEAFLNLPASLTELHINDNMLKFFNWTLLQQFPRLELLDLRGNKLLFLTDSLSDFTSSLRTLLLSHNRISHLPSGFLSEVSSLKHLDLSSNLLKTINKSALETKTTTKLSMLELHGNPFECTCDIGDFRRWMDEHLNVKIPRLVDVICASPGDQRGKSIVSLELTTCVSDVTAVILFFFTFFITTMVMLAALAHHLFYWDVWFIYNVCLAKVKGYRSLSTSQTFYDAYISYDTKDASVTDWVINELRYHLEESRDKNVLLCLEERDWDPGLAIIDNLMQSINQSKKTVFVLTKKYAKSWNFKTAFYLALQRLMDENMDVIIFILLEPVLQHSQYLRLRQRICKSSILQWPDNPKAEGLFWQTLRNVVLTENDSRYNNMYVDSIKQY
# Experiment: TLR8 cellular NFκB-luc reporter assay, wild type TLR8
# Type: cell-based
# Set-up: unit not given here
# Details: lowest effective concentration, wild type TLR8 (compounds 74 onward)
# Protocol: as §1, §2
row,SMILES,TLR 8 wt LEC
1,CCCC[C@@H](CCO)Nc1nc(N)ncc1OCc1ncc(C)c(OC)c1C [Compound 75],0.218
2,CCCC[C@H](Nc1nc(N)ncc1OCCCc1ccccc1)C(=O)OC [Compound 82],13.590
3,CCCCNc1nc(N)ncc1OCCOCc1ccccc1 [Compound 83],1.610
4,CCCCNc1nc(N)ncc1OCCOc1ccncc1 [Compound 84],0.250
5,CCCCNc1nc(N)ncc1OCc1nn(C)c(C)c1N [Compound 85],2.960
6,CCC[C@@H](CCO)Nc1nc(N)ncc1OCc1nccc(OC)c1OC [Compound 87],0.567
7,CCC(CO)Nc1nc(N)ncc1OC (stereo not drawn) [Compound 92],14.570
8,CCCCNc1nc(N)ncc1OCC(=O)c1ccc(OC)cc1 [Compound 94],3.170
9,CCCCNc1nc(N)ncc1OCc1ccc(F)cc1 [Compound 95],2.010
10,CCCCCNc1nc(N)ncc1OC(C)c1ccccc1 (stereo not drawn) [Compound 96],6.340
11,COc1cnc(N)nc1NCCCCF [Compound 97],5.070
12,CCCCNc1nc(N)ncc1O[C@H](C)c1ccccc1 [Compound 98],10.100
13,CCCCNc1nc(N)ncc1O[C@@H](C)c1ccccc1 [Compound 99],1.820
14,CCCCNc1nc(N)ncc1OCC1CCCO1 (stereo not drawn) [Compound 100],6.160

# Tested on: HCV replicon in Huh-7 luc/neo cells
# Experiment: Suppression of HCV replicon replication by conditioned media from compound-treated PBMC
# Type: cell-based, HCV type 1 b
# Details: Hepatitis C virus; conditioned media from compound-treated PBMC on Huh-7 luc/neo replicon cells (compounds 74 onward); read-out: PBMC HUH-7 EC50
# Protocol: Activation of human TLR7 results in robust production of interferon by plasmacytoid dendritic cells present in human blood. The potential of compounds to induce interferon was evaluated by looking at the antiviral activity in the HCV replicon system upon incubation with conditioned media from peripheral blood mononuclear cells (PBMC). […] The assay utilized the stably transfected cell line Huh-7 luc/neo harboring an RNA encoding a bicistronic expression construct comprising the wild type NS3-NS5B regions of HCV type 1 b translated from an Internal Ribosome Entry Site (IRES) from encephalomyocarditis virus (EMCV), preceded by a reporter gene (Firefly-luciferase) and a selectable marker gene (neoR, neomycine phosphotransferase). The construct is flanked by 5′ and 3′ NTRs (non-translated regions) from HCV type 1 b. Continued culture of the replicon cells in the presence of G418 (neoR) is dependent on the replication of the HCV RNA. The stably transfected replicon cells that replicate HCV RNA autonomously and to high levels, encoding inter alia luciferase, were used for profiling of the conditioned cell culture media.
# Briefly, PBMCs were prepared from buffy coats of at least two donors using a standard Ficoll centrifugation protocol. Isolated PBMCs were resuspended in RPMI medium supplemented with 10% human AB serum and 2×10^5 cells/well were dispensed into 384-well plates containing compounds (70 μL total volume). After overnight incubation, 10 μL of supernatant was transferred to 384-well plates containing 2.2×10^3 replicon cells/well in 30 μL (plated the day before). Following 24 hours of incubation, replication was measured by assaying luciferase activity using 40 μL/well Steady Lite Plus substrate (Perkin Elmer) and measured with ViewLux ultraHTS microplate imager (Perkin Elmer). […] Recombinant interferon α-2a (Roferon-A) was used as a standard control compound.
row,SMILES,EC50 [µM]
1,CCCC[C@@H](CCO)Nc1nc(N)ncc1OCc1ncc(C)c(OC)c1C [Compound 75],0.007
2,CCCC[C@H](Nc1nc(N)ncc1OCCCc1ccccc1)C(=O)OC [Compound 82],14
3,CCCCNc1nc(N)ncc1OCCOCc1ccccc1 [Compound 83],0.204
4,CCCCNc1nc(N)ncc1OCCOc1ccncc1 [Compound 84],0.076
5,CCCCNc1nc(N)ncc1OCc1nn(C)c(C)c1N [Compound 85],0.209
6,CCC[C@@H](CCO)Nc1nc(N)ncc1OCc1nccc(OC)c1OC [Compound 87],0.012
7,CCC(CO)Nc1nc(N)ncc1OC (stereo not drawn) [Compound 92],20.2
8,CCCCNc1nc(N)ncc1OCC(=O)c1ccc(OC)cc1 [Compound 94],0.696
9,CCCCNc1nc(N)ncc1OCc1ccc(F)cc1 [Compound 95],0.726
10,CCCCCNc1nc(N)ncc1OC(C)c1ccccc1 (stereo not drawn) [Compound 96],4.31
11,COc1cnc(N)nc1NCCCCF [Compound 97],2.64
12,CCCCNc1nc(N)ncc1O[C@H](C)c1ccccc1 [Compound 98],22
13,CCCCNc1nc(N)ncc1O[C@@H](C)c1ccccc1 [Compound 99],1.28
14,CCCCNc1nc(N)ncc1OCC1CCCO1 (stereo not drawn) [Compound 100],5.12
